Data reported in paper PMC9954146, “Anti-Leukaemic Activity of Rilpivirine Is Mediated by Aurora A Kinase Inhibition” (Cancers, 2023).

Columns and labels:
[1] = Pharmacokinetic analysis in mice; type: in vivo, mouse
Description: A pharmacokinetic study was performed as described previously. The pharmacokinetics of rilpivirine was determined after administration of single 50 mg/kg oral (PO) and 2 mg/kg intravenous (IV) doses to male BALB/c hairy mice (n = 6 per route). Briefly, three blood samples were collected from both cheeks (left and right) and the heart of each mouse. A validated liquid chromatography-mass spectrometry/mass spectrometry (LC-MS/MS) technique was used to measure the drug concentrations in the plasma. Pharmacokinetic parameters were estimated using compartmental models (Phoenix, Certara, NJ, USA) and analysis was performed with WinNonlin 6.4 software (Princeton, NJ, USA).

[2] = tested on: Aurora A kinase signalling pathway proteins in HL-60 and NB4 cells; experiment: Western blotting, concentration series; type: cell-based, human; details: 24 h
Description: Western blotting was performed following a method described previously. Briefly, 8 × 10^5 to 1 × 10^6 cells were seeded in petri dishes with 8 to 10 mL of culture medium and incubated overnight at 37 °C, 5% CO2. Then, the cells were treated with the test compounds and further incubated for the specified time point. Cells were then lysed using a lysis buffer containing protease inhibitors, and proteins were extracted by centrifugation. Protein concentrations were determined by using a Bio-Rad DC^TM protein assay kit (Bio-Rad Laboratories, Hercules, CA, USA). A total of 20–30 μg of proteins was loaded onto each well of 4–20% polyacrylamide gels for electrophoresis. Once electrophoresis was completed, gels were placed on pre-soaked polyvinylidene difluoride membranes and blocked with 10% skimmed milk in 1 × Tris-buffered saline and Tween (TBST). Then, the blots were incubated with primary antibodies, followed by washing with TBST for 4 × 20 min. After this, the blots were incubated with the appropriate horseradish peroxidase (HRP)-conjugated secondary antibody, followed by washing again with TBST for 4 × 20 min. The protein bands were then detected with either ECL prime (Amersham^TM ECL^TM prime Western blotting detection reagent) or ECL select (Amersham^TM ECL^TM select Western blotting detection reagent) depending on the abundance of the protein of interest. The blots were imaged using the Bio-Rad ChemiDoc^TM MP imaging system (Bio-Rad Laboratories, Hercules, CA, USA). All the primary and secondary antibodies used in this study were purchased from Cell Signaling Technology (Danvers, MA, USA).

PIP5K1g(h) = PIP5K1g(h) (Homo sapiens, UniProt O60331); experiment: Kinase panel; type: biochemical; details: read-out: % Residual Activity
Summary of the method: (§1)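 In this kinome-wide profiling of rilpivirine, IC50 values were obtained in radiometric format at the Km concentration of ATP for each kinase, then expressed as Ki using Cheng–Prusoff.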

PKG1β(h) = target: T1, PKG1β(h) (Homo sapiens, UniProt Q13976); experiment: Kinase panel; type: biochemical; details: read-out: % Residual Activity
T1 construct: purchased Eurofins (KinaseProfiler)
Summary of the method: as §1

EphB3(h) = target: T2, EphB3(h) (Homo sapiens, UniProt P54753); experiment: Kinase panel; type: biochemical; details: read-out: % Residual Activity
T2 construct: purchased Eurofins (KinaseProfiler)
Summary of the method: as §1

TSSK1(h) = target: T3, TSSK1(h) (Homo sapiens, UniProt Q9BXA7); experiment: Kinase panel; type: biochemical; details: read-out: % Residual Activity
T3 construct: purchased Eurofins (KinaseProfiler)
Summary of the method: as §1

CDK5/p35(h) = target: T4, CDK5/p35(h) (Homo sapiens, UniProt Q00535); experiment: Kinase panel; type: biochemical; details: read-out: % Residual Activity
T4 construct: purchased Eurofins (KinaseProfiler)
Summary of the method: as §1

ACK1(h) = target: T5, ACK1(h) (Homo sapiens, UniProt Q07912); experiment: Kinase panel; type: biochemical; details: read-out: % Residual Activity
T5 construct: purchased Eurofins (KinaseProfiler)
Summary of the method: as §1

PhKγ2(h) = target: T6, PhKγ2(h) (Homo sapiens, UniProt P15735); experiment: Kinase panel; type: biochemical; details: read-out: % Residual Activity
T6 construct: purchased Eurofins (KinaseProfiler)
Summary of the method: as §1

EphA2(h) = target: T7, EphA2(h) (Homo sapiens, UniProt P29317); experiment: Kinase panel; type: biochemical; details: read-out: % Residual Activity
T7 construct: purchased Eurofins (KinaseProfiler)
Summary of the method: as §1

CHK2(R145W)(h) = target: T8, CHK2(R145W)(h) (Homo sapiens, UniProt O96017, R145W); experiment: Kinase panel; type: biochemical; details: read-out: % Residual Activity
T8 construct: purchased Eurofins (KinaseProfiler)
Summary of the method: as §1

CDK4/cyclinD3(h) = target: T9, CDK4/cyclinD3(h) (Homo sapiens, UniProt P11802); experiment: Kinase panel; type: biochemical; details: read-out: % Residual Activity
T9 construct: purchased Eurofins (KinaseProfiler)
Summary of the method: as §1

CaMKIß(h) = target: T10, CaMKIß(h) (Homo sapiens, UniProt Q6P2M8); experiment: Kinase panel; type: biochemical; details: read-out: % Residual Activity
T10 construct: purchased Eurofins (KinaseProfiler)
Summary of the method: as §1

DCAMKL1(h) = target: T11, DCAMKL1(h) (Homo sapiens, UniProt O15075); experiment: Kinase panel; type: biochemical; details: read-out: % Residual Activity
T11 construct: purchased Eurofins (KinaseProfiler)
Summary of the method: as §1

cSRC(h) = target: T12, cSRC(h) (Homo sapiens, UniProt P12931); experiment: Kinase panel; type: biochemical; details: read-out: % Residual Activity
T12 construct: purchased Eurofins (KinaseProfiler)
Summary of the method: as §1

Lyn(h) = target: T13, Lyn(h) (Homo sapiens, UniProt P07948); experiment: Kinase panel; type: biochemical
T13 construct: purchased Eurofins (KinaseProfiler)
Summary of the method: as §1

MLK1(h) = target: T14, MLK1(h) (Homo sapiens, UniProt P80192); experiment: Kinase panel; type: biochemical; details: read-out: % Residual Activity
T14 construct: purchased Eurofins (KinaseProfiler)
Summary of the method: as §1

EphA5(h) = target: T15, EphA5(h) (Homo sapiens, UniProt P54756); experiment: Kinase panel; type: biochemical; details: read-out: % Residual Activity
T15 construct: purchased Eurofins (KinaseProfiler)
Summary of the method: as §1

[3] = male, BALB/c hairy, mouse, plasma, IV, 2 mg/kg single dose
[4] = male, BALB/c hairy, mouse, plasma, PO, 50 mg/kg single dose

T13 sequence (P07948 whole entry): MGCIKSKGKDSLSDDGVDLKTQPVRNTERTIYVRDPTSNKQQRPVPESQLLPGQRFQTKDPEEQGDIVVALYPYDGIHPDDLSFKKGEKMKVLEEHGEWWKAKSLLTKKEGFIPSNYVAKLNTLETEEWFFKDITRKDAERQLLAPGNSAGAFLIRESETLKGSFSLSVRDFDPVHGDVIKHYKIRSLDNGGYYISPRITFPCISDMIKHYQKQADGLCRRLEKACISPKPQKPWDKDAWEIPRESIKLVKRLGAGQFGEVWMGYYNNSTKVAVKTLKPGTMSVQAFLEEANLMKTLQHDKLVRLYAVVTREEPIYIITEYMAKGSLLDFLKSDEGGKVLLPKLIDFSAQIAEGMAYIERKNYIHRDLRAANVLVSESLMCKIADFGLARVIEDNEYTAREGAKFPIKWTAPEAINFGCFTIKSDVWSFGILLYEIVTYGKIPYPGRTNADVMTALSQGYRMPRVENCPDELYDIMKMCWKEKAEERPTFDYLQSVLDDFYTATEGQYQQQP
T4 sequence (Q00535 whole entry): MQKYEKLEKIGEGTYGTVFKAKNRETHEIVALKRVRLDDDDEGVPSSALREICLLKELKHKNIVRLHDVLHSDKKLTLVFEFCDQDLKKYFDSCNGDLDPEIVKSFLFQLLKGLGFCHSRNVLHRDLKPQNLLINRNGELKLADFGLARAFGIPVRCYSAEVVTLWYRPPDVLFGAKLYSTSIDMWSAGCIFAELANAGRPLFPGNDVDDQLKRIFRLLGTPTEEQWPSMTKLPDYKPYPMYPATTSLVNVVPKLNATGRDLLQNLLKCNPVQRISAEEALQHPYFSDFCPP
T4 sequence (Q15078 whole entry partner): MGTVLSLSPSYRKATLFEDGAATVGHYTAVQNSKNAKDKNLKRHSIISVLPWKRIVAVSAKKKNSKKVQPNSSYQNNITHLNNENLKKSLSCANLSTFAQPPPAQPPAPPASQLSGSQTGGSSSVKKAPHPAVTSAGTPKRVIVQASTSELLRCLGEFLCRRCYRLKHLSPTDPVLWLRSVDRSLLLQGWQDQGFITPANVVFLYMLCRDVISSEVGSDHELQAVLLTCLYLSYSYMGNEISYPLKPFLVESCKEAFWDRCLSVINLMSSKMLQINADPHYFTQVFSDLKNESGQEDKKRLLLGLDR
T11 sequence (O15075 whole entry): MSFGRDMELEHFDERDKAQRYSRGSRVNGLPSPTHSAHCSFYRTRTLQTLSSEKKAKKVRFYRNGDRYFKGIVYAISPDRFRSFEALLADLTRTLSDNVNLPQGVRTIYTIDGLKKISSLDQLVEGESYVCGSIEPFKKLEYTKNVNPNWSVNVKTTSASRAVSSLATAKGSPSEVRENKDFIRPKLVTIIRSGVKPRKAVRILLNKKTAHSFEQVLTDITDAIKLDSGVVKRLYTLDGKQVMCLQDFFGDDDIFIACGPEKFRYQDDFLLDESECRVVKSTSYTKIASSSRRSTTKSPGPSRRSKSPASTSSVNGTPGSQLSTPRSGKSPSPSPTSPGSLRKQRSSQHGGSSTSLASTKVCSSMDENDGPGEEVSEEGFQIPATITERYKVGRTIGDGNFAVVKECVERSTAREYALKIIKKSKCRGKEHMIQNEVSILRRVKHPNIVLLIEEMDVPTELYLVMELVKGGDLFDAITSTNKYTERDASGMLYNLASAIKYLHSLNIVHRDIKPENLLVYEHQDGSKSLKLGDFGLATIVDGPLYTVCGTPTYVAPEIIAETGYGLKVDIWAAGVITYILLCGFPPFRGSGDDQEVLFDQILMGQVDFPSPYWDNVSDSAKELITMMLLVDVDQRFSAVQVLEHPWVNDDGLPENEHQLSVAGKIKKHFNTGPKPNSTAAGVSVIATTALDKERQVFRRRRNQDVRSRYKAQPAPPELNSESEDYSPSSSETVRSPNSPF
T10 sequence (Q6P2M8 whole entry): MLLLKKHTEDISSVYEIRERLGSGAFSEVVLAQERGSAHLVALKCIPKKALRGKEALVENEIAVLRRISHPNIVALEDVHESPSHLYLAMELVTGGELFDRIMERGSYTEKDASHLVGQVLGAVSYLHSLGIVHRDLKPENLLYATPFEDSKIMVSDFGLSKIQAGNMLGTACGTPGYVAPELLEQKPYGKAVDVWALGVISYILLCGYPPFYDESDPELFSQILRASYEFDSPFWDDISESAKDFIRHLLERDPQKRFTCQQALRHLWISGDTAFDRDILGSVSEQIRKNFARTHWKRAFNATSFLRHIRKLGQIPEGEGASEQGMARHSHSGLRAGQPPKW
T15 sequence (P54756 25-1037): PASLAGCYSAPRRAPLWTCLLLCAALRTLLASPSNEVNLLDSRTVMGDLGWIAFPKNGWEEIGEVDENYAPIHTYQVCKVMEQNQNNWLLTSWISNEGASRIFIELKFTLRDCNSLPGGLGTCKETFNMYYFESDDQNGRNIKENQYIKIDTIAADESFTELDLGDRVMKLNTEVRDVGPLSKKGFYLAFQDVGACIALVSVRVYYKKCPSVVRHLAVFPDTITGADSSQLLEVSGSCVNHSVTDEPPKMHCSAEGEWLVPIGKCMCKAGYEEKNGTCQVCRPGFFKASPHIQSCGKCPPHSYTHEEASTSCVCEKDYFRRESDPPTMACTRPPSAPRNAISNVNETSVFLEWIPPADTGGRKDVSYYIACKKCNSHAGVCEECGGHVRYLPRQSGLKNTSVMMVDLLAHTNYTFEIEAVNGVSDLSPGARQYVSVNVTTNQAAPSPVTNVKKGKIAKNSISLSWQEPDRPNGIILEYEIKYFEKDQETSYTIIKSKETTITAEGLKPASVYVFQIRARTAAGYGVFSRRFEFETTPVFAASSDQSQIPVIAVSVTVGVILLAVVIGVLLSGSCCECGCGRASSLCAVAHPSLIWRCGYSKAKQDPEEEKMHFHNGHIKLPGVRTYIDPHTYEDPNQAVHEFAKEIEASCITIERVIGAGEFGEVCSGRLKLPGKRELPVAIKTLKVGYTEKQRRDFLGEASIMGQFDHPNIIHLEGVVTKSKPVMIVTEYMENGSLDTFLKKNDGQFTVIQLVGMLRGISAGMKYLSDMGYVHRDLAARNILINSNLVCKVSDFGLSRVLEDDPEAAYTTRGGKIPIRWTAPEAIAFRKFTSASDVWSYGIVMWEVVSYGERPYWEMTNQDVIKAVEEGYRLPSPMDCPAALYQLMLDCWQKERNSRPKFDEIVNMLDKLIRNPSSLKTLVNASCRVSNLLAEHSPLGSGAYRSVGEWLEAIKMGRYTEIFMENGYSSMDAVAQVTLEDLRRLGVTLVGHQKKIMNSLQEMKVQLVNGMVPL
T14 sequence (P80192 whole entry): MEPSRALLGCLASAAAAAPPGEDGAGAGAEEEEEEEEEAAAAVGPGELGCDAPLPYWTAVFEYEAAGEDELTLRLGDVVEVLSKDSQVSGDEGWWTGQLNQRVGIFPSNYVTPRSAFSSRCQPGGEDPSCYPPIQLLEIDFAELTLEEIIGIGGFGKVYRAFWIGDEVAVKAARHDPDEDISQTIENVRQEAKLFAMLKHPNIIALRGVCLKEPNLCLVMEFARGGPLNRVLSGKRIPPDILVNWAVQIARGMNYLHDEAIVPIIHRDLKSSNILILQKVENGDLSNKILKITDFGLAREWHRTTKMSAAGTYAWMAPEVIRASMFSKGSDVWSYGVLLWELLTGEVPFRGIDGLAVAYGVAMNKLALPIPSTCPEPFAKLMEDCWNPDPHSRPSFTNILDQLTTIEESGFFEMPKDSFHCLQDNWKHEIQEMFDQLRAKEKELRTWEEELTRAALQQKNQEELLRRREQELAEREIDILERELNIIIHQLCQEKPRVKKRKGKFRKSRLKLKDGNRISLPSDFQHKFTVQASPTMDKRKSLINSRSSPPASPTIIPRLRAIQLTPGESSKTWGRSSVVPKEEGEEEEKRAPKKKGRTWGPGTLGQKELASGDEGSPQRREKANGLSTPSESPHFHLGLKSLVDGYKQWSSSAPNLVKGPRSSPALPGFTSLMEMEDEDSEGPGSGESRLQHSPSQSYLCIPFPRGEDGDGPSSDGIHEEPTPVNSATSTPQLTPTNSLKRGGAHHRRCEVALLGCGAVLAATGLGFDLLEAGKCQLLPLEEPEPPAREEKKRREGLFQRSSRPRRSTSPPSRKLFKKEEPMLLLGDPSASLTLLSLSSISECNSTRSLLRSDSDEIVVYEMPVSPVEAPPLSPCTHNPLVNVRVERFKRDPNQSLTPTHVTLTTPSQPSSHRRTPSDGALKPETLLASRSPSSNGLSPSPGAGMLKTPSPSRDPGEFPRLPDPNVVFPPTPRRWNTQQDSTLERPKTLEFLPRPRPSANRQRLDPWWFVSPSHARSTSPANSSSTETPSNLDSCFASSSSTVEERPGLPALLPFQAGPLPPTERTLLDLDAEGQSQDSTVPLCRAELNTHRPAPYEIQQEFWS
T9 sequence (P11802 whole entry): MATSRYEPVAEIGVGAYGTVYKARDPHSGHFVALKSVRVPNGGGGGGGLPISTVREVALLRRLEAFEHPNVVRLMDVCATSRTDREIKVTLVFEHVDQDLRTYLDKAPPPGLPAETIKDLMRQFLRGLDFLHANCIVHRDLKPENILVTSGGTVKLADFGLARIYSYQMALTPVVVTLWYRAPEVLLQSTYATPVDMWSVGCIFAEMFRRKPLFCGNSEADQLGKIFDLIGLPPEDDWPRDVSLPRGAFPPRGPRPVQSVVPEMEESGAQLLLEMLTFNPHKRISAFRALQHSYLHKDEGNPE
T9 sequence (P30281 whole entry partner): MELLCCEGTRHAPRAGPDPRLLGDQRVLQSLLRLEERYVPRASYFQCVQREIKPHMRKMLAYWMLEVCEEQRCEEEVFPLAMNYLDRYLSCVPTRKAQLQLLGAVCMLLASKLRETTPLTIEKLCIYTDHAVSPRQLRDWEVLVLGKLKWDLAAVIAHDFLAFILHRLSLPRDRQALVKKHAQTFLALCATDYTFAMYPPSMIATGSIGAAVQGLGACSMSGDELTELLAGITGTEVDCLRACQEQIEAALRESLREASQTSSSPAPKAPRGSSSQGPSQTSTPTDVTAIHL

Q: For `Cc1cc(/C=C/C#N)cc(C)c1Nc1ccnc(Nc2ccc(C#N)cc2)n1` [rilpivirine, (E)-4-((4-((4-(2-cyanoethenyl)-2,6-dimethylphenyl)amino)pyrimidin-2-yl)amino)benzonitrile], which Cmax ([1]; IV, 2 mg/kg single dose, 2 mg/kg) is on record?
A: > 20 µM

Q: And the Cmax ([1]; PO, 50 mg/kg single dose, 50 mg/kg)?
A: > 20 µM

Q: What about the AUC(0-t) [1, 3] of the same compound?
A: 20 µM·h

Q: And the Tmax [1, 3]?
A: 0.033 h

Q: And the half-life [1, 3]?
A: 1.3 h

Q: What about the AUC(0-t) [1, 4] of the same compound?
A: 247 µM·h

Q: What about the Tmax [1, 4] of the same compound?
A: 1.5 h

Q: What about the bioavailability [1, 4] of the same compound?
A: 49.1%

Q: What about the half-life [1, 4] of the same compound?
A: 4.91 h

Q: And the Cmax ([1]; male, BALB/c hairy, mouse, plasma, iv, 2 mg/kg, 2 mg/kg single dose)?
A: 22.4 µM

Q: And the Cmax ([1]; male, BALB/c hairy, mouse, plasma, po, 50 mg/kg, 50 mg/kg single dose)?
A: 33.3 µM

Q: What about the CDK1 level [2] of the same compound?
A: reduced

Q: What about the “Cdc25C (Ser198) phosphorylation” value [2] of the same compound?
A: inhibited

Q: What about the “PARP and caspase 3 cleavage” value [2] of the same compound?
A: increased

Q: And the “Plk1 (Thr210) phosphorylation” value [2]?
A: inhibited

Q: What about the “anti-apoptotic protein Mcl-1” value [2] of the same compound?
A: down-regulation

Q: And the “cyclin B1 level” value [2]?
A: reduced

Q: What about the “phospho-Histone H3 (Ser10)” value [2] of the same compound?
A: induced

Q: And the “phosphorylation of CENP (Ser7)” value [2]?
A: inhibited

Q: What about the “total Aurora A” value [2] of the same compound?
A: without affecting

Q: What about the “auto-phosphorylation of Aurora A at Thr288” value ([2]; concentration-dependent) of the same compound?
A: suppressed

Q: What about the remaining activity at 1 µM (PIP5K1g(h)) of the same compound?
A: 76%

Q: What about the remaining activity at 1 µM (PKG1β(h)) of the same compound?
A: 79%

Q: And the remaining activity at 1 µM (EphB3(h))?
A: 88%

Q: What about the remaining activity at 1 µM (TSSK1(h)) of the same compound?
A: 86%

Q: And the remaining activity at 1 µM (CDK5/p35(h))?
A: 97%

Q: What about the remaining activity at 1 µM (ACK1(h)) of the same compound?
A: 97%

Q: What about the remaining activity at 1 µM (PhKγ2(h)) of the same compound?
A: 83%

Q: And the remaining activity at 1 µM (EphA2(h))?
A: 72%

Q: And the remaining activity at 1 µM (CHK2(R145W)(h))?
A: 76%

Q: And the remaining activity at 1 µM (CDK4/cyclinD3(h))?
A: 101%

Q: What about the remaining activity at 1 µM (CaMKIß(h)) of the same compound?
A: 92%

Q: And the remaining activity at 1 µM (DCAMKL1(h))?
A: 91%

Q: And the remaining activity at 1 µM (cSRC(h))?
A: 53%

Q: And the inhibition at 1 µM (Lyn(h); LYN, read-out: inhibitory activity)?
A: > 70%

Q: What about the remaining activity at 1 µM (Lyn(h); read-out: % Residual Activity) of the same compound?
A: 23%

Q: What about the remaining activity at 1 µM (MLK1(h)) of the same compound?
A: 81%

Q: And the remaining activity at 1 µM (EphA5(h))?
A: 79%
